27 molecules from patent US6838456B2, “Condensed pyridoindole derivatives” (Lilly ICOS LLC, priority 2000, dated 2005) can be followed below.

This test deals with human recombinant PDE5 (Homo sapiens, UniProt O76074). As to the kind of experiment: Inhibitory effect on cGMP-PDE (one-step assay, 8-[H3]-cGMP). Format: biochemical. To be noted: in vitro. As for the experimental part: The compounds of structural formula (I) were tested for an ability to inhibit PDE5. The ability of a compound to inhibit PDE5 activity is related to the IC50 value for the compound, i.e., the concentration of inhibitor required for 50% inhibition of enzyme activity. The IC50 value for compounds of structural formula (I) were determined using recombinant human PDE5.
cGMP-PDE activity of compounds of the present invention was measured using a one-step assay adapted from Wells et al., Biochim. Biophys. Acta, 384, 430 (1975). The reaction medium contained 50 mM Tris-HCl, pH 7.5, 5 mM magnesium acetate, 250 μg/ml 5′-Nucleotidase, 1 mM EGTA, and 0.15 μM 8-[H^3]-cGMP. Unless otherwise indicated, the enzyme used was a human recombinant PDE5 (ICOS Corp., Bothell, Wash.).
Compounds of the invention were dissolved in DMSO finally present at 2% in the assay.
Take `CN(C(=O)O)C(=O)c1ccn2c1Cc1c([nH]c3ccccc13)C2c1ccc2c(c1)OCO2` (stereo not drawn) [Example 29]: the IC50 turned out to be 3.8 nM.
The same measure for `CN1CCC(N(C)C(=O)c2ccn3c2Cc2c([nH]c4ccccc24)C3c2ccc3c(c2)OCO3)CC1` (stereo not drawn) [Example 16]: 330 nM.
As to `CCc1cc(C(=O)NCc2ccccn2)c2n1C(c1ccc3c(c1)OCO3)c1[nH]c3ccccc3c1C2` (stereo not drawn) [Example 53], the IC50 is 50 nM.
As to `CCOC(=O)c1c(C(=O)OCC)c(C(C)C)n2c1Cc1c([nH]c3ccccc13)C2c1ccc2c(c1)OCO2` (stereo not drawn) [Example 15], the IC50 was 190 nM.
`O=C(NCc1cccc[n+]1[O-])c1ccn2c1Cc1c([nH]c3ccccc13)C2c1ccc2c(c1)OCO2` (stereo not drawn) [Example 20]: the IC50 was determined as 1.5 nM.
`O=C(O)C1CCN(C(=O)c2ccn3c2Cc2c([nH]c4ccccc24)C3c2ccc3c(c2)OCO3)CC1` (stereo not drawn) [Example 22]: the IC50 stood at 3 nM.
In the case of `O=C(NCc1ccccn1)c1ccn2c1Cc1c([nH]c3ccccc13)C2c1ccc2c(c1)OCO2` (stereo not drawn) [Example 28], the IC50 is 3.7 nM.
The same measure for `O=C(NCCc1ccccn1)c1ccn2c1Cc1c([nH]c3ccccc13)C2c1ccc2c(c1)OCO2` (stereo not drawn) [Example 24]: 2.1 nM; for `O=C(O)c1ccn2c1Cc1c([nH]c3ccccc13)C2c1ccc2c(c1)OCO2` (stereo not drawn) [Example 36]: 10 nM.
The same measure for `CCOC(=O)c1cc(CN)n2c1Cc1c([nH]c3ccccc13)C2c1ccc2c(c1)CCO2` (stereo not drawn) [Example 8]: 40 nM.
Consider `CCOC(=O)c1cc(C(C)C)n2c1Cc1c([nH]c3ccccc13)C2c1ccc2c(c1)OCO2` (stereo not drawn) [Example 19], for which the IC50 turned out to be 460 nM.
In the case of `c1ccc2c3c([nH]c2c1)C(c1ccc2c(c1)OCO2)n1cccc1C3` (stereo not drawn) [Example 10], the concentration for half-maximal inhibition (IC50) amounted to 140 nM.
With `CCOC(=O)c1cn2c(c1C(=O)OCC)Cc1c([nH]c3ccccc13)C2c1ccc2c(c1)OCO2` (stereo not drawn) [Example 21] the figure was 1.2 nM.
The same measure for `NCCNC(=O)c1ccn2c1Cc1c([nH]c3ccccc13)C2c1ccc2c(c1)OCO2` (stereo not drawn) [Example 30]: 10 nM; for `O=C(NCCn1cccn1)c1ccn2c1Cc1c([nH]c3ccccc13)C2c1ccc2c(c1)OCO2` (stereo not drawn) [Example 17]: 8 nM.
In the case of `CCOC(=O)c1cc(CNCc2ccccc2)n2c1Cc1c([nH]c3ccccc13)C2c1ccc2c(c1)OCO2` (stereo not drawn) [Example 6], the IC50 was 10 nM.
The same measure for `O=C(NCCN1CCOCC1)c1ccn2c1Cc1c([nH]c3ccccc13)C2c1ccc2c(c1)OCO2` (stereo not drawn) [Example 31]: 20 nM; for `N#Cc1ccn2c1Cc1c([nH]c3ccccc13)C2c1ccc2c(c1)OCO2` (stereo not drawn) [Example 27]: 3.6 nM; for `CCOC(=O)c1cc(C=O)n2c1Cc1c([nH]c3ccccc13)C2c1ccc2c(c1)OCO2` (stereo not drawn) [Example 23]: 3.9 nM.
On to `O=C(NCC1CCCO1)c1ccn2c1Cc1c([nH]c3ccccc13)C2c1ccc2c(c1)OCO2` (stereo not drawn) [Example 14], for which the IC50 turned out to be 5.8 nM.
As to `CCOC(=O)c1cc(CO)n2c1Cc1c([nH]c3ccccc13)C2c1ccc2c(c1)OCO2` (stereo not drawn) [Example 18], the half-maximal inhibitory concentration (IC50) was 10 nM.
Regarding `CN(C)CCNC(=O)c1ccn2c1Cc1c([nH]c3ccccc13)C2c1ccc2c(c1)OCO2` (stereo not drawn) [Example 26], the half-maximal inhibitory concentration (IC50) amounted to 110 nM.
With `O=C(NCc1cccnc1)c1ccn2c1Cc1c([nH]c3ccccc13)C2c1ccc2c(c1)OCO2` (stereo not drawn) [Example 25] the figure was 5.9 nM; with `CCOC(=O)c1c(C(=O)OCC)c2n(c1CC)C(c1ccc3c(c1)OCO3)c1[nH]c3ccccc3c1C2` (stereo not drawn) [Example 12], 10 nM.
With `CCOC(=O)c1c(C(=O)OCC)c2n(c1C)[C@H](c1ccc3c(c1)OCO3)c1[nH]c3ccccc3c1C2` [Example 1, (R)-5-Benzo[1,3]dioxol-5-yl-3-methyl-6,11-dihydro-5H-indolizino[6,7-b]indole-1,2-dicarboxylic acid diethyl ester] the figure was 5.6 nM; with `CCOC(=O)c1ccn2c1Cc1c([nH]c3ccccc13)C2c1ccc2c(c1)OCO2` (stereo not drawn) [Example 35], 5.5 nM.
The same measure for `CCOC(=O)c1c(C(=O)O)c(CC)n2c1Cc1c([nH]c3ccccc13)C2c1ccc2c(c1)OCO2` (stereo not drawn) [Example 13]: 5.9 nM.

For orientation: IC50 means the midpoint of a concentration-inhibition curve.
